Values after ≈ are worked out from the molar mass of the structure shown.

The first test concerns Mycobacterium tuberculosis. In words: Minimum inhibitory concentration against Mycobacterium tuberculosis. Type of test: functional.
As to `COc1ccc(-c2cc(=O)c3c(OC)cc(OC)c(C4C(=O)c5c(OC)cc(OC)cc5OC4c4ccc(OC)cc4)c3o2)cc1` (centres undefined), the MIC (commonly the lowest concentration that inhibits growth of the organism) was 12.5 µg/mL (≈ 20 µM).

Compound `COc1ccc(C2CC(=O)c3c(OC)cc(OC)c(C4C(=O)c5c(OC)cc(OC)cc5OC4c4ccc(OC)cc4)c3O2)cc1` (centres undefined) yielded an MIC of more than 12.5 µg/mL.

In the case of `COc1ccc(-c2cc(=O)c3c(OC)c(-c4c(OC)cc5oc(-c6ccc(OC)cc6)cc(=O)c5c4OC)c(OC)cc3o2)cc1`, the minimal inhibitory concentration (MIC) is more than 12.5 µg/mL.

In a further test the test system is Mycobacterium tuberculosis. In words: Antituberculosis activity against Mycobacterium tuberculosis at a concentration of 12.5 ug/mL. It counts as functional.
For `O=c1cc(-c2ccc(Oc3c(-c4cccc([N+](=O)[O-])c4)oc4ccccc4c3=O)cc2)oc2ccccc12`, the inhibition (in general, the drop in the measured response relative to a control, in per cent) at 12.5 µg/mL worked out at 61%.

Take `COc1ccc(-c2cc(=O)c3c(OC)cc(OC)c(C4C(=O)c5c(OC)cc(OC)cc5OC4c4ccc(OC)cc4)c3o2)cc1` (centres undefined): the inhibition at 12.5 µg/mL was determined as 95%.

Consider `O=C1CC(c2ccc(O)cc2)Oc2cc(O)c(-c3c(O)cc(O)c4c3OC(c3ccc(O)cc3)CC4=O)c(O)c21` (centres undefined), for which the inhibition at 12.5 µg/mL amounted to 0%.

As to `COc1ccc(-c2cc(=O)c3c(OC)c(-c4cc(OC)ccc4-c4cc(=O)c5c(OC)cc(OC)cc5o4)c(OC)cc3o2)cc1`, testing at 12.5 µg/mL gave an inhibition of 1%.

In turn, `O=c1cc(-c2cccc(-c3cccc4c(=O)cc(-c5ccccc5)oc34)c2)oc2ccccc12` came in with an inhibition at 12.5 µg/mL of 49%.

Compound `COc1ccc2c(c1)OC(c1ccccc1)C(C1C(=O)c3ccc(OC)cc3OC1c1ccccc1)C2=O` (centres undefined) gave an inhibition at 12.5 µg/mL of 0%.

Take `CC(=O)Oc1ccc(C2CC(=O)c3c(cc(OC(C)=O)c(-c4c(OC(C)=O)cc(OC(C)=O)c5c4OC(c4ccc(OC(C)=O)cc4)CC5=O)c3OC(C)=O)O2)cc1` (centres undefined): the inhibition at 12.5 µg/mL came out at 0%.

`O=C1c2c(O)cc(O)cc2OC(c2ccc(O)cc2)C1c1c(O)cc(O)c2c(=O)cc(-c3ccc(O)c(O)c3)oc12` (centres undefined) registered an inhibition at 12.5 µg/mL of 0%.

As to `COc1ccc(C2CC(=O)c3c(OC)cc(OC)c(C4C(=O)c5c(OC)cc(OC)cc5OC4c4ccc(OC)cc4)c3O2)cc1` (centres undefined), the inhibition at 12.5 µg/mL was found to be 87%.

`COc1ccc(C2CC(=O)c3c(cc(OC)c(-c4c(OC)cc5c(c4OC)C(=O)CC(c4ccc(OC)cc4)O5)c3OC)O2)cc1` (centres undefined): the inhibition at 12.5 µg/mL turned out to be 2%.

In turn, `O=C1CC(c2ccc(O)c(O)c2)Oc2c1c(O)cc(O)c2C1C(=O)c2c(O)cc(O)cc2OC1c1ccc(O)cc1` (centres undefined) displayed an inhibition at 12.5 µg/mL of 0%.

In turn, `O=c1cc(-c2ccccc2)oc2ccc(-c3ccccc3-c3cc(=O)c4ccccc4o3)cc12` yielded an inhibition at 12.5 µg/mL of 9%.

As for `CC(=O)Oc1ccc(C2Oc3cc(OC(C)=O)cc(OC(C)=O)c3C(=O)C2c2c(OC(C)=O)cc(OC(C)=O)c3c2OC(c2ccc(OC(C)=O)c(OC(C)=O)c2)CC3=O)cc1` (centres undefined), the inhibition at 12.5 µg/mL is 0%.

`COc1ccc(-c2cc(=O)c3c(OC)c(-c4c(OC)cc5oc(-c6ccc(OC)cc6)cc(=O)c5c4OC)c(OC)cc3o2)cc1` came in with an inhibition at 12.5 µg/mL of 96%.

Turning to `O=C1CC(c2ccc(O)cc2)Oc2cc(O)c(-c3c(O)cc4c(c3O)C(=O)CC(c3ccc(O)cc3)O4)c(O)c21` (centres undefined), testing at 12.5 µg/mL gave an inhibition of 0%.

In turn, `O=c1cc(-c2cccc(-c3ccc4c(=O)cc(-c5ccccc5)oc4c3)c2)oc2ccccc12` displayed an inhibition at 12.5 µg/mL of 0%.

For the compound `COc1ccc(-c2oc3cc(OC)cc(OC)c3c(=O)c2-c2c(-c3ccc(OC)cc3)oc3cc(OC)cc(OC)c3c2=O)cc1`, testing at 12.5 µg/mL gave an inhibition of 0%.

`O=c1cc(-c2ccccc2-c2cccc3c(=O)cc(-c4ccccc4)oc23)oc2ccccc12` showed an inhibition at 12.5 µg/mL of 0%.

Take `CC(=O)Oc1ccc(C2CC(=O)c3c(cc(OC(C)=O)c(-c4c(OC(C)=O)cc5c(c4OC(C)=O)C(=O)CC(c4ccc(OC(C)=O)cc4)O5)c3OC(C)=O)O2)cc1` (centres undefined): the inhibition at 12.5 µg/mL turned out to be 0%.

In turn, `O=C1CC(c2ccc(O)c(O)c2)Oc2c1c(O)cc(O[C@]1(O)O[C@H](CO)[C@@H](O)C(O)[C@H]1O)c2C1C(=O)c2c(O)cc(O)cc2OC1c1ccc(O)cc1` (single isomer, unassigned) gave an inhibition at 12.5 µg/mL of 0%.

As to `O=C1CC(c2ccc(O)cc2)Oc2c1c(O)cc(O[C@]1(O)O[C@H](CO)[C@@H](O)C(O)[C@H]1O)c2C1C(=O)c2c(O)cc(O)cc2OC1c1ccc(O)cc1` (single isomer, unassigned), the inhibition at 12.5 µg/mL was found to be 0%.

In turn, `O=C1c2c(O)cc(O)cc2OC(c2ccc(O)cc2)C1c1c(O[C@]2(O)O[C@H](CO)[C@@H](O)C(O)[C@H]2O)cc(O)c2c(=O)cc(-c3ccc(O)cc3)oc12` (single isomer, unassigned) gave an inhibition at 12.5 µg/mL of 0%.

For the compound `CC(=O)OC[C@H]1O[C@@](O)(Oc2cc(OC(C)=O)c3c(c2C2C(=O)c4c(OC(C)=O)cc(OC(C)=O)cc4OC2c2ccc(OC(C)=O)cc2)OC(c2ccc(OC(C)=O)cc2)CC3=O)[C@H](O)C(O)[C@@H]1O` (single isomer, unassigned), 12.5 µg/mL produced 0% inhibition.

Compound `O=c1cc(-c2ccc(O)c(-c3c(O)cc(O)c4c(=O)cc(-c5ccc(O)cc5)oc34)c2)oc2cc(O)cc(O)c12` [AMENTOFLAVONE] returned an inhibition at 12.5 µg/mL of 0%.

`O=c1cc(-c2ccc(Oc3c(O)cc4oc(-c5ccc(O)cc5)cc(=O)c4c3O)cc2)oc2cc(O)cc(O)c12` [HINOKIFLAVONE] displayed an inhibition at 12.5 µg/mL of 0%.

For `O=c1cc(-c2ccc(O)c(-c3c(O)cc4oc(-c5ccc(O)cc5)cc(=O)c4c3O)c2)oc2cc(O)cc(O)c12` [ROBUSTAFLAVONE], at 12.5 µg/mL the inhibition was 0%.

These data come from ChEMBL document CHEMBL1133902, “Biflavonoids as novel antituberculosis agents” (2001).
